Earlier results in patent US8058278B2, “Methods of enhancing mucosal hydration and mucosal clearance by treatment with sodium channel blockers and osmolytes” (Parion Sciences, Inc., priority 2006, dated 2011).

Tested on: water permeability of airways
Conditions: amiloride used concurrently with hypertonic saline

**Q.** For N=C(N)NC(=O)c1nc(Cl)c(N)nc1N [Amiloride, amiloride], which “effect on water permeability of airways” value is on record?
**A.** block the water permeability of airways
